Assay results as given in patent publication US9452986B2, “6-heteroaryloxy- or 6-aryloxy-quinoline-2-carboxamides and method of use” (AbbVie Inc., priority 2014, dated 2016).

These compounds were tested against recombinant human Nav1.7 (Homo sapiens (Human), UniProt Q15858) (assay: FRET-based membrane potential assay, recombinant human sodium channel Nav1.7). Conditions: HEK293 cells stably expressing recombinant human Nav1.7; veratridine + scorpion venom depolarization; read-out: FRET-Membrane Potential Nav1.7 IC50.
Type: cell-based
Outline: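 Channel activation used veratridine at its EC80, set by a dilution curve each experiment, together with Leiurus scorpion venom, added 3 min after compound. Membrane-potential ratio signals from FLIPR Tetra in HEPES-buffered HBSS were fitted to a four-parameter Hill equation for percent inhibition and IC50.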

recombinant human Nav1.7, sequence (Q15858 whole entry): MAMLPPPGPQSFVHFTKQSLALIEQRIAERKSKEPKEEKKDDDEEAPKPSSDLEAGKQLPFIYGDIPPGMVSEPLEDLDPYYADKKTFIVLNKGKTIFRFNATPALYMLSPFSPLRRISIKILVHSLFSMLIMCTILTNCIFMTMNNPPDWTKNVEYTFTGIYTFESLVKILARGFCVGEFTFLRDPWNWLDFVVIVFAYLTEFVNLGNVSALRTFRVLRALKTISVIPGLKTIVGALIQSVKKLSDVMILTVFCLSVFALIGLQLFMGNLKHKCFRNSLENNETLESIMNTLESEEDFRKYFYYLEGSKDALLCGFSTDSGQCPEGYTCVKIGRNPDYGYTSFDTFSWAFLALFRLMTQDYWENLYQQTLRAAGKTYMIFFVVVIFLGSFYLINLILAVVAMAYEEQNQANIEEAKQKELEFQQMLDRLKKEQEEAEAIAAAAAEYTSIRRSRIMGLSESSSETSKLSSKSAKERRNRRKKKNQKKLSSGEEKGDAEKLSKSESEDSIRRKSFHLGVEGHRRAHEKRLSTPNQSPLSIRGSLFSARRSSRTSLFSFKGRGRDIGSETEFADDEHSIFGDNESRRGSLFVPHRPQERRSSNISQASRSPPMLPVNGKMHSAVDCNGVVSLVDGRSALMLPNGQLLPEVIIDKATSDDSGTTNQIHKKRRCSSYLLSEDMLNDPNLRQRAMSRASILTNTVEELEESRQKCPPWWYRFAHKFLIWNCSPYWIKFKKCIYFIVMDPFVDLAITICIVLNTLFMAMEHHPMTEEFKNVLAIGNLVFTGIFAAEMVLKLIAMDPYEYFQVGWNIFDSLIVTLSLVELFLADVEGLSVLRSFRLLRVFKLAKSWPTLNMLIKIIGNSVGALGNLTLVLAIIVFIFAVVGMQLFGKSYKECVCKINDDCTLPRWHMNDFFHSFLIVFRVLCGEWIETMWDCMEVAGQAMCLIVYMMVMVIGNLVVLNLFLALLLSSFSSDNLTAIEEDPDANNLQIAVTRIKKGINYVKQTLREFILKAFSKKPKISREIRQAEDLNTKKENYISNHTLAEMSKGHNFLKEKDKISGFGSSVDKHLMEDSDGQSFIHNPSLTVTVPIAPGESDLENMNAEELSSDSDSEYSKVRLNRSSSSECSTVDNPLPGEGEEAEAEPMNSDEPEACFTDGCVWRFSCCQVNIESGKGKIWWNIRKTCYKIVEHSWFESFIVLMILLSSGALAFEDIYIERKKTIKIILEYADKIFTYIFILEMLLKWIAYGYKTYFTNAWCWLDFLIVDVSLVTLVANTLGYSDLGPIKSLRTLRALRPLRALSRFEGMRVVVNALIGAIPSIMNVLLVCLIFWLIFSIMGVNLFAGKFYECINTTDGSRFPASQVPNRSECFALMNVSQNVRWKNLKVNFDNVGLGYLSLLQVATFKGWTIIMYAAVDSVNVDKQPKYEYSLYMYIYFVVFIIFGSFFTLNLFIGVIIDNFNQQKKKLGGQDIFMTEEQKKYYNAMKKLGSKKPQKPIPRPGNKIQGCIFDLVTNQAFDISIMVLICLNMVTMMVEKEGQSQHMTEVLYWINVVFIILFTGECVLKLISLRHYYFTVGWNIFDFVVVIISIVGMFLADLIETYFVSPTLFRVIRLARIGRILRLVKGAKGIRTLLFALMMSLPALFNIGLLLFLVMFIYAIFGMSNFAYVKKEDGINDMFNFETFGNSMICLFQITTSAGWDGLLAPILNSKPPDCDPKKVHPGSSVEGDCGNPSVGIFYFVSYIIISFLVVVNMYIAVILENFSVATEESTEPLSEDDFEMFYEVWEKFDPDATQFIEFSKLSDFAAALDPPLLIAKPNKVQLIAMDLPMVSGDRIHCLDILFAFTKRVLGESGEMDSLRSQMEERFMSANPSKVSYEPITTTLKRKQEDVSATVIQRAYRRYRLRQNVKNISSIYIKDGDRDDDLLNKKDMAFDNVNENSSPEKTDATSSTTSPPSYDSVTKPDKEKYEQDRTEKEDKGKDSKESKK

In order of rising IC50:
1. Cc1ccccc1NC(=O)CCNC(=O)c1ccc2cc(Oc3ccc(C(F)(F)F)cn3)ccc2n1 [Example 500, N-{3-[(2-methylphenyl)amino]-3-oxopropyl}-6-{[5-(trifluoromethyl)pyridin-2-yl]oxy}quinoline-2-carboxamide]  293 nM
2. COc1ccccc1N1CC(NC(=O)c2ccc3cc(Oc4ccc(C(F)(F)F)cn4)ccc3n2)CC1=O (centres unmarked) [Example 502, N-[1-(2-methoxyphenyl)-5-oxopyrrolidin-3-yl]-6-{[5-(trifluoromethyl)pyridin-2-yl]oxy}quinoline-2-carboxamide]  429 nM
3. O=C(NC1C[S+]([O-])C1)c1ccc2cc(Oc3ccc(C(F)(F)F)cn3)ccc2n1 (centres unmarked) [Example 503, N-(1-oxidothietan-3-yl)-6-{[5-(trifluoromethyl)pyridin-2-yl]oxy}quinoline-2-carboxamide]  586 nM
4. COCCOCC1(F)CCN(C(=O)c2ccc3cc(Oc4ccc(C(F)(F)F)cn4)ccc3n2)C1 (centres unmarked) [Example 493, {3-fluoro-3-[(2-methoxyethoxy)methyl]pyrrolidin-1-yl}(6-{[5-(trifluoromethyl)pyridin-2-yl]oxy}quinolin-2-yl)methanone]  802 nM
5. O=C(NCC1CN(C(=O)c2ccc3cc(Oc4ccc(C(F)(F)F)cn4)ccc3n2)CC1F)OCc1ccccc1 (centres unmarked) [Example 492, benzyl ({4-fluoro-1-[(6-{[5-(trifluoromethyl)pyridin-2-yl]oxy}quinolin-2-yl)carbonyl]pyrrolidin-3-yl}methyl)carbamate]  858 nM
6. COCC1(F)CCN(C(=O)c2ccc3cc(Oc4ccc(C(F)(F)F)cn4)ccc3n2)C1 (centres unmarked) [Example 487, [3-fluoro-3-(methoxymethyl)pyrrolidin-1-yl](6-{[5-(trifluoromethyl)pyridin-2-yl]oxy}quinolin-2-yl)methanone]  919 nM
7. COc1cccc(N2CCN(C(=O)c3ccc4cc(Oc5ccc(C(F)(F)F)cn5)ccc4n3)CC2=O)c1 [Example 498, 1-(3-methoxyphenyl)-4-[(6-{[5-(trifluoromethyl)pyridin-2-yl]oxy}quinolin-2-yl)carbonyl]piperazin-2-one]  923 nM
8. O=C(NC1CSC1)c1ccc2cc(Oc3ccc(C(F)(F)F)cn3)ccc2n1 [Example 499, N-(thietan-3-yl)-6-{[5-(trifluoromethyl)pyridin-2-yl]oxy}quinoline-2-carboxamide]  938 nM
9. O=C(c1ccc2cc(Oc3ccc(C(F)(F)F)cn3)ccc2n1)N1CCC(F)(COc2ccncc2)C1 (centres unmarked) [Example 489, {3-fluoro-3-[(pyridin-4-yloxy)methyl]pyrrolidin-1-yl}(6-{[5-(trifluoromethyl)pyridin-2-yl]oxy}quinolin-2-yl)methanone]  1100 nM
10. O=C(c1ccc2cc(Oc3ccc(C(F)(F)F)cn3)ccc2n1)N1CCC(F)(COc2cccnc2)C1 (centres unmarked) [Example 490, {3-fluoro-3-[(pyridin-3-yloxy)methyl]pyrrolidin-1-yl}(6-{[5-(trifluoromethyl)pyridin-2-yl]oxy}quinolin-2-yl)methanone]  1420 nM
11. O=C(c1ccc2cc(Oc3ccc(C(F)(F)F)cn3)ccc2n1)N1C[C@@H](F)C[C@@H]1CO [Example 495, [(2R,4S)-4-fluoro-2-(hydroxymethyl)pyrrolidin-1-yl](6-{[5-(trifluoromethyl)pyridin-2-yl]oxy}quinolin-2-yl)methanone]  1690 nM
12. O=C(NCCN1CCNCC1=O)c1ccc2cc(Oc3ccc(C(F)(F)F)cn3)ccc2n1 [Example 469, N-[2-(2-oxopiperazin-1-yl)ethyl]-6-{[5-(trifluoromethyl)pyridin-2-yl]oxy}quinoline-2-carboxamide]  1710 nM
13. CC(C)(O)CNC(=O)c1ccc2cc(Oc3ccc(C(F)(F)F)nc3)ccc2n1 [Example 471, N-(2-hydroxy-2-methylpropyl)-6-{[6-(trifluoromethyl)pyridin-3-yl]oxy}quinoline-2-carboxamide]  2400 nM
14. O=C(NC1CC[S+]([O-])CC1)c1ccc2cc(Oc3ccc(C(F)F)cn3)ccc2n1 (centres unmarked) [Example 481, 6-{[5-(difluoromethyl)pyridin-2-yl]oxy}-N-(1-oxidotetrahydro-2H-thiopyran-4-yl)quinoline-2-carboxamide]  2630 nM
15. O=C(c1ccc2cc(Oc3ccc(C(F)(F)F)cn3)ccc2n1)N1CC(F)(F)C[C@@H]1CO [Example 496, [(2R)-4,4-difluoro-2-(hydroxymethyl)pyrrolidin-1-yl](6-{[5-(trifluoromethyl)pyridin-2-yl]oxy}quinolin-2-yl)methanone]  2910 nM
16. O=C(NC1CCC(F)(F)C1)c1ccc2cc(Oc3ccc(C(F)(F)F)cn3)ccc2n1 (centres unmarked) [Example 485, N-(3,3-difluorocyclopentyl)-6-{[5-(trifluoromethyl)pyridin-2-yl]oxy}quinoline-2-carboxamide]  3140 nM
17. CS(=O)(=O)C1CN(C(=O)c2ccc3cc(Oc4ccc(C(F)F)cn4)ccc3n2)C1 [Example 479, (6-{[5-(difluoromethyl)pyridin-2-yl]oxy}quinolin-2-yl)[3-(methylsulfonyl)azetidin-1-yl]methanone]  3190 nM
18. O=C(c1ccc2cc(Oc3ccc(C(F)(F)F)cn3)ccc2n1)N1CC(F)(F)C[C@H]1CO [Example 497, [(2S)-4,4-difluoro-2-(hydroxymethyl)pyrrolidin-1-yl](6-{[5-(trifluoromethyl)pyridin-2-yl]oxy}quinolin-2-yl)methanone]  3430 nM
19. O=C(c1ccc2cc(Oc3ccc(C(F)(F)F)cn3)ccc2n1)N1CC2(C1)OCCO2 [Example 476, 5,8-dioxa-2-azaspiro[3.4]oct-2-yl(6-{[5-(trifluoromethyl)pyridin-2-yl]oxy}quinolin-2-yl)methanone]  3920 nM
20. O=C(c1ccc2cc(Oc3ccc(C(F)(F)F)cn3)ccc2n1)N1CCC(F)(COc2ccccc2)C1 (centres unmarked) [Example 491, [3-fluoro-3-(phenoxymethyl)pyrrolidin-1-yl](6-{[5-(trifluoromethyl)pyridin-2-yl]oxy}quinolin-2-yl)methanone]  4990 nM
21. O=C(N[C@@H]1CS(=O)(=O)C[C@H]1O)c1ccc2cc(Oc3ccc(C(F)F)cn3)ccc2n1 [Example 477, 6-{[5-(difluoromethyl)pyridin-2-yl]oxy}-N-[(3S,4S)-4-hydroxy-1,1-dioxidotetrahydrothiophen-3-yl]quinoline-2-carboxamide]  5510 nM
22. O=C(c1ccc2cc(Oc3ccc(C(F)(F)F)cn3)ccc2n1)N1CC2OCOC2C1 (centres unmarked) [Example 478, tetrahydro-5H-[1,3]dioxolo[4,5-c]pyrrol-5-yl(6-{[5-(trifluoromethyl)pyridin-2-yl]oxy}quinolin-2-yl)methanone]  5940 nM
23. O=C(NCC1CNC1)c1ccc2cc(Oc3ccc(C(F)(F)F)cn3)ccc2n1 [Example 470, N-(azetidin-3-ylmethyl)-6-{[5-(trifluoromethyl)pyridin-2-yl]oxy}quinoline-2-carboxamide]  6600 nM
24. N#CCCCN1CCN(C(=O)c2ccc3cc(Oc4ccc(C(F)(F)F)cn4)ccc3n2)CC1 [Example 472, 4-{4-[(6-{[5-(trifluoromethyl)pyridin-2-yl]oxy}quinolin-2-yl)carbonyl]piperazin-1-yl}butanenitrile]  7760 nM
25. N#CC1CCN(C(=O)c2ccc3cc(Oc4ccc(C(F)(F)F)cn4)ccc3n2)CC1 [Example 474, 1-[(6-{[5-(trifluoromethyl)pyridin-2-yl]oxy}quinolin-2-yl)carbonyl]piperidine-4-carbonitrile]  9100 nM
26. O=C(c1ccc2cc(Oc3ccc(C(F)(F)F)cn3)ccc2n1)N1CCC2(COC2)C1 [Example 494, 2-oxa-6-azaspiro[3.4]oct-6-yl(6-{[5-(trifluoromethyl)pyridin-2-yl]oxy}quinolin-2-yl)methanone]  9320 nM
27. CC(C)NC(=O)CN(C)C(=O)c1ccc2cc(Oc3ccc(C(F)F)cn3)ccc2n1 [Example 468, 6-{[5-(difluoromethyl)pyridin-2-yl]oxy}-N-[2-(isopropylamino)-2-oxoethyl]-N-methylquinoline-2-carboxamide]  13800 nM
28. N#CCCN1CCN(C(=O)c2ccc3cc(Oc4ccc(C(F)(F)F)cn4)ccc3n2)CC1 [Example 473, 3-{4-[(6-{[5-(trifluoromethyl)pyridin-2-yl]oxy}quinolin-2-yl)carbonyl]piperazin-1-yl}propanenitrile]  16200 nM
29. CN(C(=O)c1ccc2cc(Oc3ccc(C(F)(F)F)cn3)ccc2n1)C1COC1 [Example 480, N-methyl-N-(oxetan-3-yl)-6-{[5-(trifluoromethyl)pyridin-2-yl]oxy}quinoline-2-carboxamide]  19900 nM

Same assay, conditions: read-out: FRET-Membrane Potential Nav1.7 IC50

In order of rising IC50:
1. CCOCC1(F)CCN(C(=O)c2ccc3cc(Oc4ccc(C(F)(F)F)cn4)ccc3n2)C1 (centres unmarked) [Example 488, [3-(ethoxymethyl)-3-fluoropyrrolidin-1-yl](6-{[5-(trifluoromethyl)pyridin-2-yl]oxy}quinolin-2-yl)methanone]  526 nM
2. O=C(NCC1COC1)c1ccc2cc(Oc3ccc(C(F)(F)F)cn3)ccc2n1 [Example 482, N-(oxetan-3-ylmethyl)-6-{[5-(trifluoromethyl)pyridin-2-yl]oxy}quinoline-2-carboxamide]  569 nM
3. CN(C)C(=O)[C@H](Cc1ccccc1)NC(=O)c1ccc2cc(Oc3ccc(C(F)(F)F)cn3)ccc2n1 [Example 501, N-[(2S)-1-(dimethylamino)-1-oxo-3-phenylpropan-2-yl]-6-{[5-(trifluoromethyl)pyridin-2-yl]oxy}quinoline-2-carboxamide]  734 nM
4. N#Cc1ccc(Oc2ccc3nc(C(=O)NC4CCNC(=O)C4)ccc3c2)cc1 (centres unmarked) [Example 484, 6-(4-cyanophenoxy)-N-(2-oxopiperidin-4-yl)quinoline-2-carboxamide]  879 nM
5. O=C(NC1COC1)c1ccc2cc(Oc3ccc(C(F)F)cn3)ccc2n1 [Example 475, 6-{[5-(difluoromethyl)pyridin-2-yl]oxy}-N-(oxetan-3-yl)quinoline-2-carboxamide]  1960 nM
6. O=C(NC1CCC(F)(F)C1)c1ccc2cc(Oc3ccc(C(F)F)cn3)ccc2n1 (centres unmarked) [Example 486, N-(3,3-difluorocyclopentyl)-6-{[5-(difluoromethyl)pyridin-2-yl]oxy}quinoline-2-carboxamide]  2540 nM
